Test results published in PMC6291622, “Vitamin E Increases Antimicrobial Sensitivity by Inhibiting Bacterial Lipocalin Antibiotic Binding” (mSphere, 2018).

Molecular target: T1, BcnA (Burkholderia cenocepacia, UniProt B4EE32)
T1 construct: gene BCAL3311; purified BcnA expressed from pET28a-bcnA in E. coli BL21
T1 sequence (B4EE32 27-186): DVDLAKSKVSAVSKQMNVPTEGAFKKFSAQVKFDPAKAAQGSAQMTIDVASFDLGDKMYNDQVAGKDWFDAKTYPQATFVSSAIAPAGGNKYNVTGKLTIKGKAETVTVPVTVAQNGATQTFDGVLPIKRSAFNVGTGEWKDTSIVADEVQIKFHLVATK
Assay: isothermal titration calorimetry (ITC), […]°C, PBS pH […], N = […]
Assay type: binding

SMILES: CCn1cc(C(=O)O)c(=O)c2cc(F)c(N3CCNCC3)cc21 [norfloxacin]
- Kd: 4.9 mM
